Experiment [1] has as its system Normal plasma pool. The experiment in a line: APTT assay (Roche APTT LS on Roche cobas t 711 coagulation analyzer), spiked normal plasma pool. Conditions: for effect of spiked amount on clotting time of APTT assay: increasing concentrations, normal plasma sample; for APTT result: normal plasma pool.
Experiment [2] deals with pathological plasma pool. The experiment in a line: Thrombin time assay (Roche Thrombin Time Reagent on Roche cobas t 711), spiked pathological plasma pool. To be noted: for TT result: pathological plasma pool. The method, then:
[The source words this procedure for another target and reports this target under the same test.] A TT result of 19 s would result in a conjugated bilirubin concentration x=4.95 mg/dL. The calibration curve shown above was generated by spiking increasing amount of bilic to a normal plasma sample.

Experiment [3] deals with Normal plasma pool. In words: Thrombin time assay (Roche Thrombin Time Reagent on Roche cobas t 711), spiked normal plasma pool. Conditions: for effect of spiked amount on clotting time of thrombin time (TT) assay: increasing concentrations, normal plasma sample; for TT result: normal plasma pool.

Data on three compounds can be found in patent publication US20190276872A1, “DETERMINATION OF INTERFERENTS IN A SAMPLE” (Roche Diagnostics Operations, Inc., priority 2016, published 2019).

hemoglobin: the “effect of spiked amount on clotting time of APTT assay” value (from here on “effect … of APTT assay”) in experiment [1] is “systematically shortened”. Besides, the APTT result in experiment [1] (spiked at 130.00 mg/dL) is 28.40 s; in experiment [1] (spiked at 260.00 mg/dL), 28.10 s; in experiment [1] (spiked at 390.00 mg/dL), 27.90 s; in experiment [1] (spiked at 520.00 mg/dL), 27.60 s; in experiment [1] (spiked at 650.00 mg/dL), 27.40 s; in experiment [1] (spiked at 780.00 mg/dL), 27.20 s. Moreover, the APTT result in experiment [1] (spiked at 910.00 mg/dL) was determined as 26.70 s; in experiment [1] (spiked at 1040.00 mg/dL) it was 26.30 s; in experiment [1] (spiked at 1170.00 mg/dL) it was 26.20 s; in experiment [1] (spiked at 1300.00 mg/dL) it was 25.70 s. Also, the “effect of spiked amount on clotting time of thrombin time (TT) assay” value (shortened to “effect of spiked amount … (TT) assay”) in experiment [2] (increasing concentrations, pathological plasma sample) is “systematically shortened”. Also, the TT result came out at 38.50 s in experiment [2] (spiked at 130.00 mg/dL); 38.10 s in experiment [2] (spiked at 260.00 mg/dL); 37.60 s in experiment [2] (spiked at 390.00 mg/dL); 36.70 s in experiment [2] (spiked at 520.00 mg/dL); 36.30 s in experiment [2] (spiked at 650.00 mg/dL); 35.70 s in experiment [2] (spiked at 780.00 mg/dL). The TT result in experiment [2] (spiked at 910.00 mg/dL) was 35.00 s; in experiment [2] (spiked at 1040.00 mg/dL) it was 34.40 s; in experiment [2] (spiked at 1170.00 mg/dL), 33.60 s; in experiment [2] (spiked at 1300.00 mg/dL) it was 33.40 s.

With `C=CC1=C(C)/C(=C/c2[nH]c(Cc3[nH]c(/C=C4\NC(=O)C(C)=C4C=C)c(C)c3CCC(=O)O)c(CCC(=O)O)c2C)NC1=O` [unconjugated bilirubin], the “effect of spiked amount … (TT) assay” value in experiment [3] is “does not seem to influence thrombin time results”. In addition, the TT result amounted to 16.30 s in experiment [3] (spiked at 6.60 mg/dL); 16.30 s in experiment [3] (spiked at 13.20 mg/dL); 16.00 s in experiment [3] (spiked at 19.80 mg/dL); 16.40 s in experiment [3] (spiked at 26.40 mg/dL); 16.40 s in experiment [3] (spiked at 33.00 mg/dL); 16.40 s in experiment [3] (spiked at 39.60 mg/dL). The TT result in experiment [3] (spiked at 46.20 mg/dL) is listed as 16.40 s; in experiment [3] (spiked at 52.80 mg/dL) it was 16.60 s; in experiment [3] (spiked at 59.40 mg/dL), 16.50 s; in experiment [3] (spiked at 66.00 mg/dL) it was 16.60 s. Further, in experiment [1], the “effect … of APTT assay” value is recorded as “influences APTT results only marginally”. The APTT result was determined as 30.70 s in experiment [1] (spiked at 6.60 mg/dL); 31.10 s in experiment [1] (spiked at 13.20 mg/dL); 30.80 s in experiment [1] (spiked at 19.80 mg/dL); 30.80 s in experiment [1] (spiked at 26.40 mg/dL); 30.70 s in experiment [1] (spiked at 33.00 mg/dL); 30.50 s in experiment [1] (spiked at 39.60 mg/dL). Further, the APTT result in experiment [1] (spiked at 46.20 mg/dL) turned out to be 30.50 s; in experiment [1] (spiked at 52.80 mg/dL), 30.30 s; in experiment [1] (spiked at 59.40 mg/dL) it was 30.60 s; in experiment [1] (spiked at 66.00 mg/dL), 30.30 s.

For conjugated bilirubin, the “effect of spiked amount … (TT) assay” value in experiment [3] was “systematically prolonged”. For the same compound, the TT result in experiment [3] (spiked at 1.00 mg/dL) turned out to be 16.70 s; in experiment [3] (spiked at 2.00 mg/dL), 17.40 s; in experiment [3] (spiked at 3.00 mg/dL), 17.80 s; in experiment [3] (spiked at 4.00 mg/dL) it was 18.50 s; in experiment [3] (spiked at 5.00 mg/dL), 19.20 s; in experiment [3] (spiked at 6.00 mg/dL) it was 19.50 s. Also, the TT result in experiment [3] (spiked at 7.00 mg/dL) was found to be 20.00 s; in experiment [3] (spiked at 8.00 mg/dL) it was 20.50 s; in experiment [3] (spiked at 9.00 mg/dL) it was 21.30 s; in experiment [3] (spiked at 10.00 mg/dL), 21.70 s. The “effect … of APTT assay” value in experiment [1] was “systematically prolonged”. Besides, the APTT result amounted to 27.90 s in experiment [1] (spiked at 2.00 mg/dL); 28.40 s in experiment [1] (spiked at 4.00 mg/dL); 29.00 s in experiment [1] (spiked at 6.00 mg/dL); 29.70 s in experiment [1] (spiked at 8.00 mg/dL); 30.00 s in experiment [1] (spiked at 9.00 mg/dL); 30.50 s in experiment [1] (spiked at 10.00 mg/dL). The APTT result in experiment [1] (spiked at 11.00 mg/dL) came to 30.70 s; in experiment [1] (spiked at 12.00 mg/dL), 31.10 s; in experiment [1] (spiked at 13.00 mg/dL), 31.50 s; in experiment [1] (spiked at 15.00 mg/dL) it was 32.20 s.
